# Test results: US12060388B2, “Cell-penetrating peptides and methods of use thereof” (priority 2018, dated 2024)
# Assays:
# [1] = system: retromer subunit VPS35 / HPV16 L1; experiment: Proximity ligation assay for HPV16 L1 and VPS35 in peptide-treated infected cells; type: cell-based; conditions: 14 μM, MOI of 200, eight h.p.i.
# Procedure: FIG. 19A depicts uninfected HeLa cells were incubated with 14 μM bP16/16 or bPDM/16 for three hours (“b” refers to peptides with an N-terminal biotin moiety). Cells were then fixed, permeabilized, and stained with AlexaFluor-streptavidin (green) and with anti-VPS35 (red). Overlapping signal is pseudocolored yellow. Nuclei were stained blue with DAPI. Mander's correlation coefficients for overlap between streptavidin and VPS35 staining are shown at right, with each spot representing an individual cell. Approximately 100 cells were analyzed for each condition. […] Images were processed by Fiji and quantitatively analyzed by BlobFinder software to measure total fluorescence intensity per cell in each sample. […]
# For the proximity ligation assay, after an hour incubation with peptides, HeLa-S3 cells were infected with wild-type PSV at MOI of 200 or mutant PsV containing the same number of reporter plasmid genomes. […] The nuclei were stained by using Abcam fluorescence mounting medium with DAPI and images were acquired by a Leica SP5 inverted fluorescence microscope. […] The images were processed by Fiji and quantitatively analyzed by BlobFinder software to measure total fluorescence intensity in each sample. The average fluorescence intensity per cell in each sample was normalized to the control sample as indicated in each experiment. […]
# authentic HPV16 = experiment: Inhibition of authentic HPV16 in HeLa cells, qRT-PCR for viral mRNA; type: cell-based; conditions: 14 μM, HPV16 from organotypic raft cultures, qRT-PCR 48 h.p.i.
# Procedure: To measure the inhibition of infection by authentic HPV16, HeLa cells were infected with 5 μL raft-derived HPV16 (obtained from Craig Meyers, Hershey Medical Center) or with HPV16 PsV in the presence and absence of 14 μM P16/16, and total RNA was isolated 48 h.p.i. by using the RNeasy kit following the manufacturer's instructions. RNA was reverse-transcribed into cDNA by iScript cDNA Synthesis kit. The cDNA was quantified in triplicate by using SYBR Green Supermix real-time PCR detection system and primers for HPV16 E7 or HcRed. Actin mRNA were used for normalization.
# retromer (Vps35) = target: T1, retromer (Vps35) (Homo sapiens, UniProt O75436+Q96QK1); experiment: Biotinylated peptide pull-down from HeLa S3 lysate, blot for Vps35; type: binding; conditions: streptavidin pull-down
# T1 construct: endogenous in cells; host or cells: HeLa S3 lysate (RIPA-MOPS buffer)
# Procedure: For peptide pull-down experiments, N-terminal biotinylated L2 peptides (sequences shown in FIG. 2A) were purchased from ABClonal Science (Woburn, MA) at >95% purity. L2 wild-type was dissolved initially in 30% acetic acid and DMSO (˜70 μl each), and then dissolved in sterile deionized water with 0.01% sodium azide. L2-6A, L2-3R and L2-DM were initially solubilized in a small amount of DMSO (˜70-80 μl) and then dissolved in sterile deionized water with 0.01% sodium azide. Peptide stocks (5 mg/ml) were aliquoted and stored at −20° C. HeLa S3 cells plated in six-well plates were lysed at ˜80% confluency with 500 μl RIPA-MOPS buffer (20 mM morpholinepropanesulfonic acid [pH 7.0], 150 mM NaCl, 1% Nonidet P-40, 1 mM EDTA, 1% deoxycholic acid, 0.1% sodium dodecyl sulfate [SDS]) supplemented with protease inhibitors (1×HALT protease and phosphatase inhibitor cocktail (Thermo Scientific, Waltham, MA; #78443)). The lysate was centrifuged at 14,000 rpm for 20 min, and the supernatant was incubated with 10 μg of a biotinylated peptide for two h at 4° C. Fifty μl of streptavidin agarose beads slurry (Pierce, Rockford, IL; #20349) was added, and the mixture was gently rocked for 45 min at 4° C. […] Samples were analyzed by SDS-PAGE and immunoblotting with antibody recognizing Vps35 (Abcam, Cambridge, MA; ab57632).
smiles,measurement,setting,value
CC[C@H](C)[C@H](NC(=O)[C@@H](NC(=O)[C@H](Cc1ccc(O)cc1)NC(=O)[C@H](CCC(N)=O)NC(=O)[C@@H]1CCCN1C(=O)[C@H](CO)NC(=O)[C@@H](N)CS)[C@@H](C)O)C(=O)N[C@H](C(=O)N[C@@H](C)C(=O)N[C@@H](CC(=O)O)C(=O)N[C@@H](C)C(=O)NCC(=O)N[C@@H](CC(=O)O)C(=O)N[C@@H](Cc1ccccc1)C(=O)N[C@@H](Cc1ccc(O)cc1)C(=O)N[C@@H](CC(C)C)C(=O)N[C@@H](Cc1c[nH]cn1)C(=O)N1CCC[C@H]1C(=O)N[C@@H](CO)C(=O)N[C@@H](Cc1ccc(O)cc1)C(=O)N[C@@H](Cc1ccc(O)cc1)C(=O)N[C@@H](CCSC)C(=O)N[C@@H](CC(C)C)C(=O)N[C@@H](CCCNC(=N)N)C(=O)N[C@@H](CCCCN)C(=O)N[C@@H](CCCNC(=N)N)C(=O)N[C@@H](CCCNC(=N)N)C(=O)N[C@@H](CCCCN)C(=O)N[C@@H](CCCNC(=N)N)C(=O)O)[C@@H](C)CC [P16/16],interaction of retromer with HPV (VPS35/L1 PLA),[1],inhibited the interaction of retromer with HPV
same,inhibition of authentic HPV16,authentic HPV16,inhibited
same,retromer binding of L2 peptide in vitro,retromer (Vps35),competent for retromer binding in vitro
